These results are taken from patent US7465814B2, “Sulfonate compound and fluorescent probe using the same” (priority 2003, dated 2008).

One data set is described as follows: Voltammetry measurement. Format: physicochemical. The following applies: CH3CN—H2O (3:1) containing Et4NClO4.
For a further data set, the system named is esterase. Kind of data set: Fluorescent response to esterase (Table 1). Format: biochemical. The following applies: relative fluorescence intensity, blank = 10; probe 21.3 μM, esterase 0.5 U/mL, 37° C., 10 minutes. The procedure:
(§1) Moreover, in other conditions than those of the above-described tests, reactivity of all of the compounds 1a to 1d with H2O2, other various kinds of nucleophilic agents, reducing agents and the like also was tested, respectively. More specifically, fluorescent responses of 1a to 1d with respect to a XO-HPX system, a XO-HPX-SOD system, H2O2, ascorbic acid, 1,4-hydroquinone, propylamine, diethylamine, glucose, esterase, a cytochrome P450 reductase+NADPH system, and a diaphorase+NADH system were measured, respectively. Operational processes thereof will be described below. Firstly, 1a to 1d and the above-described reagents were dissolved in HEPES of 10 mM having a pH of 7.4 so as to prepare solutions, respectively. Next, a 96 wellmicroplate was provided, where any of the solutions of 1a to 1d (25 μM, 170 μL) was poured into each of the wells, and furthermore, 30 μL of a blank solution or 30 μL of the solution of the reagent to be reacted therewith was added thereto. Final concentrations of the solutions in the wells were adjusted so that concentrations of the solutions of 1a to 1d respectively could be 21.3 μM, that of XO could be 13.1 mU/mL, those of HPX, H2O2, ascorbic acid, 1,4-hydroquinone, propylamine, diethylamine, glucose, NADPH and NADH respectively could be 50 μM, that of cytochrome P450 reductase could be 68 mU/mL, that of diaphorase could be 65 mU/mL, and that of esterase could be 0.5 U/mL, respectively. Then, after they reacted in the wells at 37° C. for 10 minutes, fluorescent responses were measured respectively. Fluorescence intensity measurement was conducted by using an ETC-272 Peltier thermostatted single cell holder (trade name) manufactured by JASCO Corporation or a SpectraMax GeminiEM fluorescence plate reader (trade name) manufactured by Molecular Devices Corporation provided with a FP-750 spectrofluorometer (trade name) manufactured by JASCO Corporation, and by setting excitation wavelengths and emission wavelengths so that those of 1a, 1b and 1c respectively could be 485 nm and 515 nm, and those of 1d respectively could be 511 nm and 540 nm.

Data set [1] is described as follows: Fluorescent response to H2O2 (Table 1). The data set is classed as biochemical. Particulars: relative fluorescence intensity, blank = 10; probe 21.3 μM, H2O2 50 μM, 37° C., 10 minutes. The procedure: as §1
The nature of data set [2]: Fluorescent response to glucose (Table 1). The data set is classed as biochemical. The following applies: relative fluorescence intensity, blank = 10; probe 21.3 μM, glucose 50 μM, 37° C., 10 minutes. The procedure:
as §1

A short description of data set [3]: Fluorescent response to XO-HPX system, 96-well microplate (Table 1). The data set is classed as biochemical. The following applies: relative fluorescence intensity, blank = 10, probe 21.3 μM, 10 minutes; for fluorescent response, XO—HPX: XO 13.1 mU/mL, HPX 50 μM, HEPES pH 7.4, 37° C.; for fluorescent response, XO—HPX—SOD: XO-HPX with SOD, 37° C. The procedure:
as §1

Data set [4] in a line: Fluorescent response to ascorbic acid (Table 1). Format: biochemical. Particulars: relative fluorescence intensity, blank = 10; probe 21.3 μM, ascorbic acid 50 μM, 37° C., 10 minutes. The procedure:
as §1

Data set [5] can be described thus: Fluorescent response to 1,4-hydroquinone (Table 1). The data set is classed as biochemical. Particulars: relative fluorescence intensity, blank = 10; probe 21.3 μM, 1,4-hydroquinone 50 μM, 37° C., 10 minutes. The procedure:
as §1

Data set [6] is described as follows: Fluorescent response to diethylamine (Table 1). The data set is classed as biochemical. Particulars: relative fluorescence intensity, blank = 10; probe 21.3 μM, diethylamine 50 μM, 37° C., 10 minutes. The procedure: as §1
Data set [7] is described as follows: Fluorescent response to propylamine (Table 1). The data set is classed as biochemical. The following applies: relative fluorescence intensity, blank = 10; probe 21.3 μM, propylamine 50 μM, 37° C., 10 minutes. The procedure: as §1
Data set [8] can be described thus: Capability as superoxide-detecting fluorescent probe (reactivity with superoxide). The data set is classed as biochemical. The following applies: tested similarly to the compound 1d. The procedure: Then, by mainly using the compound 1d as a testing compound, the capability thereof as a superoxide-selective fluorescent probe was evaluated, and moreover, a test in a cell system also was conducted. These tests will be described below.
Thus, it is thought that each compound synthesized from a combination of: a phenolic colorant; and a 2,4-dinitrobenzenesulfonyl group, a 4-trifluoromethyl-2-nitrobenzenesulfonyl group or a 4-nitrobenzenesulfonyl group can be used as a superoxide-detecting fluorescent probe similarly. An example of the usage thereof will be shown in Scheme 8 below. Furthermore, it can be expected that a compound for a fluorescent probe having characteristics that are suitable for its application purpose can be designed and developed freely, by designing the compound of the present invention freely within the limitation defined by the general formula (I) and using the fluorescence mechanism developed by the inventors of the present invention, without being limited to the above-described combinations. Examples of the application purpose of the compound of the present invention are varied, including an application to a faintly coloring technique using superoxide.

Data set [9] can be described thus: Fluorescence response to thiophosphonate group (FIG. 8). The following applies: for response to thiol group in thiophosphonate group: γ-S-ATP and adenosine monothiophosphate (S-AMP); for sensitivity of γ-S-ATP detection relative to 8a: similar tests. The data set is classed as biochemical. From the text:
Moreover, a capability of the sulfonate compound of the present invention as a fluorescent probe for mercapto compounds other than thiol (a compound in which a —SH group is bonded to a carbon atom) was examined. […]

Data set [10] in a line: Reactivity with superoxide and glutathione (FIG. 4). Format: biochemical. The following applies: for selectivity (specificity), superoxide versus glutathione, FIG. 4: same conditions as 1-3 Superoxide-selectivity (2). The procedure: as §1
(§2) The reactivity of each of the compounds 1d, 5a, 6a, 7 and 8a with respect to superoxide and glutathione (GSH) that is a kind of thiol was tested under the same conditions as those of [1-3. Superoxide-selectivity (2)] in Example 1. […] A vertical axis thereof denotes a fluorescence intensity, which is represented in % of control.

Data set [11] in a line: Responses to the compounds listed in Table 1. The data set is classed as biochemical. Particulars: same conditions as Example 1. The procedure:
as §1, §2

In another data set the test system is neutrophils. The procedure: Moreover, a toxicity of the compound 1d with respect to the neutrophils was evaluated by estimating cell viability by a trypan blue dyeing method. More specifically, the neutrophils (1.0×10^5 cells) were incubated at 37° C. for 120 minutes in a glass test tube coated with human serum albumin, in the presence of both of the compound 1d (6.25 μM) and PMA (0.16 μM), in the presence of either of them, and in the absence of them, respectively. Then, cell viability after the incubation with respect to cell viability before the incubation was measured.

As to `O=C1OC2(c3ccc(OS(=O)(=O)c4ccc([N+](=O)[O-])cc4[N+](=O)[O-])cc3Oc3cc(OS(=O)(=O)c4ccc([N+](=O)[O-])cc4[N+](=O)[O-])ccc32)c2ccccc21` [Compound 1a], the cathode response result in “Voltammetry measurement” was “about −0.5 V vs SCE”. The “fluorescent response, esterase” value in the data set on esterase is listed as 17. In data set [1], the “fluorescent response, H2O2” value is recorded as 10. In addition, the “fluorescent response, glucose” value in data set [2] came out at 10. Besides, in data set [3], the “fluorescent response, XO—HPX” value came out at 70 and the “fluorescent response, XO—HPX—SOD” value amounted to 12. In addition, the “fluorescent response, ascorbic acid” value in data set [4] turned out to be 10. Also, in [5], the “fluorescent response, 1,4-hydroquinone” value came out at 10. In addition, the “fluorescent response, diethylamine” value in data set [6] stood at 11. Further, the “fluorescent response, propylamine” value in [7] is given as 10.
For `O=C1OC2(c3cc(Cl)c(OS(=O)(=O)c4ccc([N+](=O)[O-])cc4[N+](=O)[O-])cc3Oc3cc(OS(=O)(=O)c4ccc([N+](=O)[O-])cc4[N+](=O)[O-])c(Cl)cc32)c2ccccc21` [Compound 1b], in “Voltammetry measurement”, the cathode response result is listed as “about −0.5 V vs SCE”. For the same compound, in the data set on esterase, the “fluorescent response, esterase” value is reported as 20. In addition, in data set [1], the “fluorescent response, H2O2” value is 11. Moreover, in data set [2], the “fluorescent response, glucose” value is given as 10. Further, in data set [3], the “fluorescent response, XO—HPX” value is 288 and the “fluorescent response, XO—HPX—SOD” value came to 22. In [4], the “fluorescent response, ascorbic acid” value is 11. The “fluorescent response, 1,4-hydroquinone” value in data set [5] is listed as 11. The “fluorescent response, diethylamine” value in data set [6] was 10. In data set [7], the “fluorescent response, propylamine” value was 10.
For the compound `O=C1OC2(c3cc(F)c(OS(=O)(=O)c4ccc([N+](=O)[O-])cc4[N+](=O)[O-])cc3Oc3cc(OS(=O)(=O)c4ccc([N+](=O)[O-])cc4[N+](=O)[O-])c(F)cc32)c2ccccc21` [Compound 1c], the cathode response entry in the data set “Voltammetry measurement” is “about −0.5 V vs SCE”. The “fluorescent response, esterase” value with esterase amounted to 23. In data set [1], the “fluorescent response, H2O2” value is on record as 11. For the same compound, the “fluorescent response, glucose” value in data set [2] was 10. Further, in [3], the “fluorescent response, XO—HPX” value is given as 797 and the “fluorescent response, XO—HPX—SOD” value turned out to be 48. Also, the “fluorescent response, ascorbic acid” value in data set [4] amounted to 11. For the same compound, in [5], the “fluorescent response, 1,4-hydroquinone” value worked out at 10. Also, the “fluorescent response, diethylamine” value in [6] worked out at 10. The “fluorescent response, propylamine” value in [7] is on record as 10.
On to `O=C1OC2(c3ccccc31)c1cc(F)c(OS(=O)(=O)c3ccc(C(F)(F)F)cc3[N+](=O)[O-])c(F)c1Oc1c2cc(F)c(OS(=O)(=O)c2ccc(C(F)(F)F)cc2[N+](=O)[O-])c1F` [Compound 3], for which the “deprotection by superoxide into the corresponding fluorochrome” value (from here on “deprotection”) in [8] was “deprotected by superoxide”.
Take `O=C(O)c1ccccc1-c1c2cc(F)c(=O)c(F)c-2oc2c(F)c(OS(=O)(=O)c3ccc(C(F)(F)F)cc3[N+](=O)[O-])c(F)cc12` [Compound 4a]: the “deprotection” value in [8] is recorded as “deprotected by superoxide”.
Turning to `O=C(O)c1ccccc1-c1c2cc(F)c(=O)c(F)c-2oc2c(F)c(OS(=O)(=O)c3ccc([N+](=O)[O-])cc3)c(F)cc12` [Compound 4b], the “deprotection” value in [8] is recorded as “deprotected by superoxide”.
On to `O=c1ccc2nc3ccc(OS(=O)(=O)c4ccc([N+](=O)[O-])cc4[N+](=O)[O-])cc3oc-2c1` [Compound 5a], for which the “response to thiol group in thiophosphonate group” value in data set [9] is reported as “responded to a thiol group in a so-called thiophosphonate group”. Besides, in data set [10], the “selectivity (specificity), superoxide versus glutathione, FIG. 4” value was “excellent mercapto compound-selectivity”. Further, the “deprotection” value in data set [8] is “deprotected by superoxide”. In data set [11], the “response with respect to each of the compounds listed in Table 1” value (shortened to “response with respect to each”) is “almost no response”.
Turning to `O=c1ccc2nc3ccc(OS(=O)(=O)c4ccc(C(F)(F)F)cc4[N+](=O)[O-])cc3oc-2c1` [Compound 5b], in data set [8], the “deprotection” value is “deprotected by superoxide”.
Same read-out and setting: the result for `O=c1cc(C(F)(F)F)c2ccc(OS(=O)(=O)c3ccc(C(F)(F)F)cc3[N+](=O)[O-])cc2o1` [Compound 6b] reads “deprotected by superoxide”.
In the case of `Cc1cc(=O)oc2cc(OS(=O)(=O)c3ccc([N+](=O)[O-])cc3[N+](=O)[O-])ccc12` [Compound 7], the “response to thiol group in thiophosphonate group” value in data set [9] was “responded to a thiol group in a so-called thiophosphonate group”. In addition, the “selectivity (specificity), superoxide versus glutathione, FIG. 4” value in data set [10] is on record as “excellent mercapto compound-selectivity”. Further, the “response with respect to each” value in data set [11] is listed as “almost no response”.
As for `Cc1cc2c(-c3ccccc3C(=O)O)c3cc(C)c(=O)cc-3oc2cc1OS(=O)(=O)c1ccc([N+](=O)[O-])cc1[N+](=O)[O-]` [Compound 8b], the “sensitivity of γ-S-ATP detection relative to 8a” value in data set [9] is reported as “sensitivity still higher than that of 8a”. Further, the response to glutathione result in [10] is reported as “responded to glutathione with high sensitivity”. In addition, in data set [11], the “response with respect to each” value was “almost no response”.
Take `Cc1c2oc3c(C)c(OS(=O)(=O)c4ccc([N+](=O)[O-])cc4[N+](=O)[O-])ccc3c(-c3ccccc3C(=O)O)c-2ccc1=O` [Compound 8c]: the “sensitivity of γ-S-ATP detection relative to 8a” value in data set [9] is “sensitivity still higher than that of 8a”. Also, in data set [10], the response to glutathione entry was “responded to glutathione with high sensitivity”. The “response with respect to each” value in data set [11] is on record as “almost no response”.
On to `CCCCCCCCCCCCCC(=O)O[C@@H]1[C@@H](C)[C@@]2(O)[C@@H](C=C(CO)C[C@]3(O)C(=O)C(C)=C[C@@H]23)[C@@H]2C(C)(C)[C@]12OC(C)=O` [PMA, phorbol myristate acetate, reference compound], for which the “toxicity with respect to the neutrophils” value in the data set on neutrophils (incubation of 120 minutes) was “did not show any significant toxicity”. Also, the “cell viability after the incubation with respect to before the incubation” value in the data set with neutrophils (substance only (1d 6.25 μM or PMA 0.16 μM), 1.0×10^5 neutrophils, 37° C., 120 minutes) is 93%.
